Like-named read-outs stand apart in the source and are kept apart here.
Key:
Experiment in all cases: biochemical
HIPK2 = HIPK2 (Homo sapiens, UniProt Q9H2X6)
IKK-epsilon = IKK-epsilon (Homo sapiens, UniProt Q14164)
CAMK1G = CAMK1G (Homo sapiens, UniProt Q96NX5)
MERTK = MERTK (Homo sapiens, UniProt Q12866)
ACVR1 = ACVR1 (Homo sapiens, UniProt Q04771)
DLK = DLK (Homo sapiens, UniProt Q12852)
CDK4-cyclinD3 = CDK4-cyclinD3 (Homo sapiens, UniProt P11802)
MRCKB = MRCKB (Homo sapiens, UniProt Q9Y5S2)
CSNK1G1 = CSNK1G1 (Homo sapiens, UniProt Q9HCP0)
MLK1 = MLK1 (Homo sapiens, UniProt P80192)
ACVR1B = ACVR1B (Homo sapiens, UniProt P36896)
DCAMKL3 = DCAMKL3 (Homo sapiens, UniProt Q9C098)
ACVR2A = ACVR2A (Homo sapiens, UniProt P27037)
GRK1 = GRK1 (Homo sapiens, UniProt Q15835)
CASK = CASK (Homo sapiens, UniProt O14936)
GAK = GAK (Homo sapiens, UniProt O14976)
CAMK4 = CAMK4 (Homo sapiens, UniProt Q16566)
LATS2 = LATS2 (Homo sapiens, UniProt Q9NRM7)
CSNK1E = CSNK1E (Homo sapiens, UniProt P49674)
MYLK = MYLK (Homo sapiens, UniProt Q15746)
MAP3K4 = MAP3K4 (Homo sapiens, UniProt Q9Y6R4)
FAK = FAK (Homo sapiens, UniProt Q05397)
GRK4 = GRK4 (Homo sapiens, UniProt P32298)
CSNK2A1 = CSNK2A1 (Homo sapiens, UniProt P68400)
FER = FER (Homo sapiens, UniProt P16591)
CSF1R = CSF1R (Homo sapiens, UniProt P07333)
AURKA = AURKA (Homo sapiens, UniProt O14965)
AMPK-alpha2 = AMPK-alpha2 (Homo sapiens, UniProt P54646)
MKNK1 = MKNK1 (Homo sapiens, UniProt Q9BUB5)
MET(Y1235D) = MET(Y1235D) (Homo sapiens, UniProt P08581, Y1235D)
[1] = read-out: HYJ-2-002-1 (1uM) % control
[2] = read-out: CPT-1-70-1 (1uM) % control

MLK1, sequence (P80192 whole entry): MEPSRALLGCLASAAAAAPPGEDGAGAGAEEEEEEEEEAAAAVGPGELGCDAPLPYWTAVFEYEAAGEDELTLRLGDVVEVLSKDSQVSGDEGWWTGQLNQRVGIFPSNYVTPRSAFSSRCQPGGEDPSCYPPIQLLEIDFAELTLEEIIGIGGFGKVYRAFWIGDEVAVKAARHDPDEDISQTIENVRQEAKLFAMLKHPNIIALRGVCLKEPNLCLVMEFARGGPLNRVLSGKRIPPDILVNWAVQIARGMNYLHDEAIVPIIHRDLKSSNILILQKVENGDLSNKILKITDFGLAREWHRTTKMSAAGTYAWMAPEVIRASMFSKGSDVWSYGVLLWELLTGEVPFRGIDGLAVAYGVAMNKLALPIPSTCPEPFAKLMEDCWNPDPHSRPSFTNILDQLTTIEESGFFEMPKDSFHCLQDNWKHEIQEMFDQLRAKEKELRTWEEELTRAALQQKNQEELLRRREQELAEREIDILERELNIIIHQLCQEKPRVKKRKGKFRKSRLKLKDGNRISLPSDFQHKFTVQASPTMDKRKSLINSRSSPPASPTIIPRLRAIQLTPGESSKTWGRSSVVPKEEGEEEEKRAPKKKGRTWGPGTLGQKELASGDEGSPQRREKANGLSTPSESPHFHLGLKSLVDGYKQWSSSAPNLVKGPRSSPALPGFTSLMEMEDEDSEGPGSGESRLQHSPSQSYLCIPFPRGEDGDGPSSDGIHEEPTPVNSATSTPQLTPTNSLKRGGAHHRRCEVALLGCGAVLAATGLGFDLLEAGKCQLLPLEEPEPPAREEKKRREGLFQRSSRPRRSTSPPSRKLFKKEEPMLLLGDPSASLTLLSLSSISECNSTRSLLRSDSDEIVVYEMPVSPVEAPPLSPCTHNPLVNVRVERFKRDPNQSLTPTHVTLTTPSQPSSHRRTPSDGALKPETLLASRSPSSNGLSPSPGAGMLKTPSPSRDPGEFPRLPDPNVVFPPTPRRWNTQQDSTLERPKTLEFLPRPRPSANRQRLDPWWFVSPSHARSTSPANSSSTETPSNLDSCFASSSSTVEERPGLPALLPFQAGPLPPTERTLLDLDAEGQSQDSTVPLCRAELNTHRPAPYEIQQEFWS
GRK1, sequence (Q15835 whole entry): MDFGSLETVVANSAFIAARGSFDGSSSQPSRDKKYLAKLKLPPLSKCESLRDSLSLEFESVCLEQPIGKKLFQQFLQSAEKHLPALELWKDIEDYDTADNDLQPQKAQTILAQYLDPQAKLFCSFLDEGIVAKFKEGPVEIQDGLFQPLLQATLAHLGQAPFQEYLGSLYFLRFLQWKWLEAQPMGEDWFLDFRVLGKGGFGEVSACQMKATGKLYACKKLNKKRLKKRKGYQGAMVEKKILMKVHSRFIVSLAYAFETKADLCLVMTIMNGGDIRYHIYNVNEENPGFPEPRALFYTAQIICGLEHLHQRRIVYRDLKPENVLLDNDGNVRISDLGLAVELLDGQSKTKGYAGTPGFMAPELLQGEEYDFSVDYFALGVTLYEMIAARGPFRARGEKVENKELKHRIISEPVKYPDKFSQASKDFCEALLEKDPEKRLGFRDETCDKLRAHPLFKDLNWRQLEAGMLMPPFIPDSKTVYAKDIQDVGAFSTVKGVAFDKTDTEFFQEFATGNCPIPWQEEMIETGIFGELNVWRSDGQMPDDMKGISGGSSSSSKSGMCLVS
DCAMKL3, sequence (Q9C098 whole entry): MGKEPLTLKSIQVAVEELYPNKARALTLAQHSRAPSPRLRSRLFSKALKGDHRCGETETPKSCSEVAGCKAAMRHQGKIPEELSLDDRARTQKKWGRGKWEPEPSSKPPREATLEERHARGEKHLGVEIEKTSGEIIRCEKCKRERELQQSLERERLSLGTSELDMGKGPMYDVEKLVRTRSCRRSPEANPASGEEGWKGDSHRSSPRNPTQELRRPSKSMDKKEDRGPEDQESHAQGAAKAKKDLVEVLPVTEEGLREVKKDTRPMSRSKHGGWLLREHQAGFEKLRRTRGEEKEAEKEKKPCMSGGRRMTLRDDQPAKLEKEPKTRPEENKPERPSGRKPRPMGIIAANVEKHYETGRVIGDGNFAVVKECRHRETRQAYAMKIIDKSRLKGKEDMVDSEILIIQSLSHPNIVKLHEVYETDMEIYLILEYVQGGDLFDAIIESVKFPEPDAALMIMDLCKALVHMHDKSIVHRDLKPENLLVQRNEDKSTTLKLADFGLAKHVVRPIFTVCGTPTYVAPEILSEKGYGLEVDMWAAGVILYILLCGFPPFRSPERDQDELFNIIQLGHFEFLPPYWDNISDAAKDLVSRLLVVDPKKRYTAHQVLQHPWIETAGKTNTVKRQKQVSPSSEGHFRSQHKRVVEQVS
DLK, sequence (Q12852 whole entry): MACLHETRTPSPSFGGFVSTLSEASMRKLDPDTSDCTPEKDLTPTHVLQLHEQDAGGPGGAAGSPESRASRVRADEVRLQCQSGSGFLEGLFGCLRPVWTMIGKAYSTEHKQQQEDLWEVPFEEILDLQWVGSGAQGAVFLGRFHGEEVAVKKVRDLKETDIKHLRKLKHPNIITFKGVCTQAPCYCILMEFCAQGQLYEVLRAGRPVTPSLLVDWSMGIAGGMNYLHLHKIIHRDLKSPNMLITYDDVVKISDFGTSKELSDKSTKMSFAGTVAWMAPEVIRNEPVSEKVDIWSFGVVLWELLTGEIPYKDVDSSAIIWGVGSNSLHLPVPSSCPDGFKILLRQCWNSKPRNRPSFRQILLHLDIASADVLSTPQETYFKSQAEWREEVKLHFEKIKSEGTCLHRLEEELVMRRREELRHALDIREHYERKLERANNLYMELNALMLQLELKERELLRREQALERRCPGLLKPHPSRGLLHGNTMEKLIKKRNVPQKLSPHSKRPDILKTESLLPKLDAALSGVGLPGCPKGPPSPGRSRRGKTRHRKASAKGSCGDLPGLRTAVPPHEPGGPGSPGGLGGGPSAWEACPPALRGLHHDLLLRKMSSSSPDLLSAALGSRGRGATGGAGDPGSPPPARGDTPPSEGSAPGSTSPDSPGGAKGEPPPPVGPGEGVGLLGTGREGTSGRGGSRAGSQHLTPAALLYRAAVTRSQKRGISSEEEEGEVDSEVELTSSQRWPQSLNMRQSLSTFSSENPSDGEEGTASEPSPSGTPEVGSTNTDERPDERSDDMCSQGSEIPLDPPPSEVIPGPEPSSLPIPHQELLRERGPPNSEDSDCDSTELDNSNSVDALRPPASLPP
CASK, sequence (O14936 whole entry): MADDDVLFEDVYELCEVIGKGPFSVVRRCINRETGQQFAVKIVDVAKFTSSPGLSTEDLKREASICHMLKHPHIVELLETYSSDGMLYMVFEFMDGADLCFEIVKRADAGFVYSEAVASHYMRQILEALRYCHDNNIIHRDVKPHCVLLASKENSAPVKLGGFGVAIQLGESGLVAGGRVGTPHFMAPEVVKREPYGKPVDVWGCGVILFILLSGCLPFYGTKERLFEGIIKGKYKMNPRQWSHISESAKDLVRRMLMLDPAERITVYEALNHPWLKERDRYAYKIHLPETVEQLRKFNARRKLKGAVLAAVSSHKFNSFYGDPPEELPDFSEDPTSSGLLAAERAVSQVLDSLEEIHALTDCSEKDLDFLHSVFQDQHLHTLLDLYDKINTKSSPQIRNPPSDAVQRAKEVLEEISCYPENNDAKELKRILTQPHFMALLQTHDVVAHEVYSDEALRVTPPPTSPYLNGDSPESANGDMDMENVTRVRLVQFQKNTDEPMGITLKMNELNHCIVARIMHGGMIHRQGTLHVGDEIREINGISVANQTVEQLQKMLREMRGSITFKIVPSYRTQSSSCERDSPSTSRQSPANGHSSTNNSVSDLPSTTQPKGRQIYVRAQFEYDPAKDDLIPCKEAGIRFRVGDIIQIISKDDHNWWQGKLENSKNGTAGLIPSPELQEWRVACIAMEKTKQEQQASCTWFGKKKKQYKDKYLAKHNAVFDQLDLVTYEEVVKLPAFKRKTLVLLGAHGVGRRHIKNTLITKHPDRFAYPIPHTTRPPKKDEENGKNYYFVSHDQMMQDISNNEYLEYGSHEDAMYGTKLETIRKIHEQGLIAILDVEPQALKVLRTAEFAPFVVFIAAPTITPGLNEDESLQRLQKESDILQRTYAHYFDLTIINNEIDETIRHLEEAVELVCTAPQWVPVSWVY
FER, sequence (P16591 whole entry): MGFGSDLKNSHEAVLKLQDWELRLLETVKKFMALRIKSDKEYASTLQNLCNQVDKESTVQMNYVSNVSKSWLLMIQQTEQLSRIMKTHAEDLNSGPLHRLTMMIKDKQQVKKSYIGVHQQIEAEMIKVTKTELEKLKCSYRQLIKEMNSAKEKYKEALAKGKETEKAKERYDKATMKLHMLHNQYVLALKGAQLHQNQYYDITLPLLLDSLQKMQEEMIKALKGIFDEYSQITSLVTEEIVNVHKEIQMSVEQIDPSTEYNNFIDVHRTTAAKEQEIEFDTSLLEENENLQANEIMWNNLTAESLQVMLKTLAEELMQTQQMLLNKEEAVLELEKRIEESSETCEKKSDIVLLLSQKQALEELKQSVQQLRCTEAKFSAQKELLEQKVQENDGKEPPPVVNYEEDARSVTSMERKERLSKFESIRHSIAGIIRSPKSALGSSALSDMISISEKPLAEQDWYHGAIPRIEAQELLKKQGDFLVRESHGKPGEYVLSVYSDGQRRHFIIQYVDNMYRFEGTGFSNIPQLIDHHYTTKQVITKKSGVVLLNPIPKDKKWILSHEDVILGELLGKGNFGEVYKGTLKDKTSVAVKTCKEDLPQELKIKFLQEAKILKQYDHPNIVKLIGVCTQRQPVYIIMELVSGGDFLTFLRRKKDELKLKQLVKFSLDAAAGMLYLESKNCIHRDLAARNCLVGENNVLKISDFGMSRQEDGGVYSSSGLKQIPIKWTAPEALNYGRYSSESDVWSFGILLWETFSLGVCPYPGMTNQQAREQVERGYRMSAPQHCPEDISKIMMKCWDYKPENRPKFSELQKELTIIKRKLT

## CCN1CCN(Cc2ccc(NC(=O)c3ccc(C)c(CCc4cnc5[nH]ccc5c4OC)c3)cc2C(F)(F)F)CC1 [HYJ-2-002-1]
HIPK2; [1]
  remaining activity at 1 µM: 84%
IKK-epsilon; [1]
  remaining activity at 1 µM: 94%
CAMK1G; [1]
  remaining activity at 1 µM: 94%
MERTK; [1]
  remaining activity at 1 µM: 30%
ACVR1; [1]
  remaining activity at 1 µM: 100%
DLK; [1]
  remaining activity at 1 µM: 86%
CDK4-cyclinD3; [1]
  remaining activity at 1 µM: 100%
MRCKB; [1]
  remaining activity at 1 µM: 100%
CSNK1G1; [1]
  remaining activity at 1 µM: 93%
MLK1; [1]
  remaining activity at 1 µM: 100%
ACVR1B; [1]
  remaining activity at 1 µM: 100%
DCAMKL3; [1]
  remaining activity at 1 µM: 84%
ACVR2A; [1]
  remaining activity at 1 µM: 100%
GRK1; [1]
  remaining activity at 1 µM: 100%
CASK; [1]
  remaining activity at 1 µM: 100%
GAK; [1]
  remaining activity at 1 µM: 4.8%
CAMK4; [1]
  remaining activity at 1 µM: 100%
LATS2; [1]
  remaining activity at 1 µM: 98%
CSNK1E; [1]
  remaining activity at 1 µM: 75%
MYLK; [1]
  remaining activity at 1 µM: 100%
MAP3K4; [1]
  remaining activity at 1 µM: 100%
FAK; [1]
  remaining activity at 1 µM: 91%
GRK4; [1]
  remaining activity at 1 µM: 100%
CSNK2A1; [1]
  remaining activity at 1 µM: 94%
FER; [1]
  remaining activity at 1 µM: 56%
CSF1R; [1]
  remaining activity at 1 µM: 0.45%
AURKA; [1]
  remaining activity at 1 µM: 100%
AMPK-alpha2; [1]
  remaining activity at 1 µM: 100%
MKNK1; [1]
  remaining activity at 1 µM: 84%
MET(Y1235D); [1]
  remaining activity at 1 µM: 83%

## CN1CCN(c2ccc(Nc3nc(Oc4ccc(NC(=O)CCl)cc4)c4cc[nH]c4n3)cc2)CC1 [CPT1-70-1]
HIPK2; [2]
  remaining activity at 1 µM: 90%
IKK-epsilon; [2]
  remaining activity at 1 µM: 100%
CAMK1G; [2]
  remaining activity at 1 µM: 50%
MERTK; [2]
  remaining activity at 1 µM: 70%
ACVR1; [2]
  remaining activity at 1 µM: 100%
DLK; [2]
  remaining activity at 1 µM: 78%
CDK4-cyclinD3; [2]
  remaining activity at 1 µM: 100%
MRCKB; [2]
  remaining activity at 1 µM: 100%
CSNK1G1; [2]
  remaining activity at 1 µM: 18%
MLK1; [2]
  remaining activity at 1 µM: 9%
ACVR1B; [2]
  remaining activity at 1 µM: 100%
DCAMKL3; [2]
  remaining activity at 1 µM: 56%
ACVR2A; [2]
  remaining activity at 1 µM: 100%
GRK1; [2]
  remaining activity at 1 µM: 82%
CASK; [2]
  remaining activity at 1 µM: 100%
GAK; [2]
  remaining activity at 1 µM: 7.9%
CAMK4; [2]
  remaining activity at 1 µM: 100%
LATS2; [2]
  remaining activity at 1 µM: 40%
CSNK1E; [2]
  remaining activity at 1 µM: 18%
MYLK; [2]
  remaining activity at 1 µM: 100%
MAP3K4; [2]
  remaining activity at 1 µM: 66%
FAK; [2]
  remaining activity at 1 µM: 85%
GRK4; [2]
  remaining activity at 1 µM: 100%
CSNK2A1; [2]
  remaining activity at 1 µM: 35%
FER; [2]
  remaining activity at 1 µM: 45%
CSF1R; [2]
  remaining activity at 1 µM: 12%
AURKA; [2]
  remaining activity at 1 µM: 37%
AMPK-alpha2; [2]
  remaining activity at 1 µM: 41%
MKNK1; [2]
  remaining activity at 1 µM: 100%
MET(Y1235D); [2]
  remaining activity at 1 µM: 23%
